Reference: patent US20080207522A1, “Antimicrobial Peptides” (priority 2004, published 2008)

Legend:
[1] = system: Pseudomonas aeruginosa strain H1001; experiment: Assay for the cleaved (free, soluble) peptides from cellulose support, luminescence killing assay; type: cell-based; design: key: 1: Peptides showing stronger killing than Bac2A at a 4 to 8-fold higher dilution; Peptides showing stronger killing compared to that of Bac2A at a 4-fold higher dilution; 3: Peptides similar to Bac2A; 4: Peptides similar to Bac2A at the highest concentration but demonstrating weaker killing at a 2-fold dilution; 5: Peptides giving very weak or no killing at a 2-fold dilution; 6: Peptides with weak killing activity at the highest concentration; details: free (cleaved) peptides, killing relative to Bac2A
Summary of the method: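 Cellulose-synthesized peptides (amidated C-terminus, two β-alanines) cleaved by ammonia, released from punched spots 30 min at 37 °C, then serially diluted. P. aeruginosa H1001 (constitutive fliC::luxCDABE) overnight culture diluted 1:500 in LB or 100 mM Tris pH 7.3/20 mM glucose. Killing followed as time-dependent luminescence loss at 37 °C.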

[2] = system: Pseudomonas aeruginosa strain H1001 fliC::luxCDABE; experiment: Luminescence-based assay for the non-cleaved (bound) peptides on cellulose membranes; type: cell-based; details: for Luminescence at the given time in minutes: 0 / Luminescence at the given time in minutes: 20 / Luminescence at the given time in minutes: 40 / Luminescence at the given time in minutes: 60 / Luminescence at the given time in minutes: 80 / Luminescence at the given time in minutes: 100 / Luminescence at the given time in minutes: 120 / Luminescence at the given time in minutes: 180 / Luminescence at the given time in minutes: 240: cellulose-bound peptide; for Luminescence at the given time in minutes: 0: 0 min; for Luminescence at the given time in minutes: 20: 20 min; for Luminescence at the given time in minutes: 40: 40 min; for Luminescence at the given time in minutes: 60: 60 min; for Luminescence at the given time in minutes: 80: 80 min; for Luminescence at the given time in minutes: 100: 100 min; for Luminescence at the given time in minutes: 120: 120 min; for Luminescence at the given time in minutes: 180: 180 min; for Luminescence at the given time in minutes: 240: 240 min; for Activity Class bound: uncleaved cellulose-bound peptides
Summary of the method: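 Peptides remained bound to cellulose spots, which were ethanol-washed and equilibrated in 100 mM Tris pH 7.3. Constitutively lux-expressing P. aeruginosa (OD600 0.35 culture diluted 1:25) added in 10 mM Tris-HCl pH 7.3, 20 mM glucose at 37° C. Luminescence (RLU) followed over 14 time points; peptides binned into six activity classes.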

Row | Sequence | Activity Class Soluble [1] | Luminescence at the given time in minutes: 0 [2] | Luminescence at the given time in minutes: 20 [2] | Luminescence at the given time in minutes: 40 [2] | Luminescence at the given time in minutes: 60 [2] | Luminescence at the given time in minutes: 80 [2] | Luminescence at the given time in minutes: 100 [2] | Luminescence at the given time in minutes: 120 [2] | Luminescence at the given time in minutes: 180 [2] | Luminescence at the given time in minutes: 240 [2] | Activity Class bound [2]
1 | VIALVRARVRRI [Bac049] | 3 | 4926 RLU | 7239 RLU | 5219 RLU | 4106 RLU | 3188 RLU | 2524 RLU | 2059 RLU | 1687 RLU | 1794 RLU | 5 (Peptides reducing luminescence (lux) values to between 1500 to 3000 after 240 min.)
2 | RIVLRRAAVIRV [Bac039] | 5 | 4727 RLU | 7074 RLU | 5814 RLU | 5262 RLU | 4994 RLU | 4717 RLU | 4569 RLU | 4524 RLU | 5392 RLU | 6 (Peptides having residual luminescence (lux) values greater than 3000 after 240 min.)
3 | RARIVRVRVILA [Bac016] | 2 | 4172 RLU | 6362 RLU | 2916 RLU | 678 RLU | 142 RLU | 80 RLU | 60 RLU | 68 RLU | 22 RLU | 3 (Peptides similar to Bac2A resulting in lux values of less than 500 after 240 min.)
4 | IIRAALRRVRVV [Bac009] | 5 | 3935 RLU | 6553 RLU | 4936 RLU | 4512 RLU | 3977 RLU | 3488 RLU | 3216 RLU | 3270 RLU | 3104 RLU | 6 (Peptides having residual luminescence (lux) values greater than 3000 after 240 min.)
5 | RVLIAARVIRRV [Bac047] | 3 | 4733 RLU | 6747 RLU | 5100 RLU | 4770 RLU | 4031 RLU | 3383 RLU | 3012 RLU | 2829 RLU | 2615 RLU | 5 (Peptides reducing luminescence (lux) values to between 1500 to 3000 after 240 min.)
6 | ARRARIRILVVV [Bac032] | 4 | 4649 RLU | 6342 RLU | 4584 RLU | 2088 RLU | 595 RLU | 148 RLU | 107 RLU | 54 RLU | 33 RLU | 3 (Peptides similar to Bac2A resulting in lux values of less than 500 after 240 min.)
7 | VVIRAAIRRVRL [Bac038] | 5 | 5024 RLU | 7158 RLU | 5307 RLU | 4676 RLU | 4112 RLU | 3323 RLU | 2739 RLU | 2466 RLU | 2576 RLU | 5 (Peptides reducing luminescence (lux) values to between 1500 to 3000 after 240 min.)
8 | IRARIAVRRVVL [Bac004] | 3 | 3773 RLU | 6547 RLU | 5008 RLU | 4405 RLU | 3805 RLU | 3125 RLU | 2753 RLU | 2459 RLU | 2607 RLU | 5 (Peptides reducing luminescence (lux) values to between 1500 to 3000 after 240 min.)
9 | RAIIRRVLVRVA [Bac024] | 4 | 4164 RLU | 7630 RLU | 5586 RLU | 4358 RLU | 3256 RLU | 2398 RLU | 1727 RLU | 1384 RLU | 1373 RLU | 4 (Peptides reducing luminescence (lux) values to between 500 to 1499 after 240 min.)
10 | ARAILIRVVRRV [Bac025] | 3 | 4354 RLU | 6728 RLU | 3660 RLU | 1127 RLU | 343 RLU | 113 RLU | 115 RLU | 114 RLU | 80 RLU | 3 (Peptides similar to Bac2A resulting in lux values of less than 500 after 240 min.)
11 | VIVRLAARRVRI [Bac028] | 5 | 5001 RLU | 6828 RLU | 5315 RLU | 5037 RLU | 4555 RLU | 4143 RLU | 3762 RLU | 3646 RLU | 4268 RLU | 6 (Peptides having residual luminescence (lux) values greater than 3000 after 240 min.)
12 | AAVRRRVRLVII [Bac010] | 1 | 4380 RLU | 6719 RLU | 4170 RLU | 1628 RLU | 562 RLU | 129 RLU | 121 RLU | 99 RLU | 56 RLU | 3 (Peptides similar to Bac2A resulting in lux values of less than 500 after 240 min.)
